The values that follow come from ChEMBL document CHEMBL1150531, “Acetylcholinesterase inhibition by fused dihydroquinazoline compounds” (Bioorg Med Chem Lett, 1996).

For test [1], the target named is T1, Acetylcholinesterase (Rattus norvegicus, UniProt P37136).
T1 sequence (P37136 whole entry): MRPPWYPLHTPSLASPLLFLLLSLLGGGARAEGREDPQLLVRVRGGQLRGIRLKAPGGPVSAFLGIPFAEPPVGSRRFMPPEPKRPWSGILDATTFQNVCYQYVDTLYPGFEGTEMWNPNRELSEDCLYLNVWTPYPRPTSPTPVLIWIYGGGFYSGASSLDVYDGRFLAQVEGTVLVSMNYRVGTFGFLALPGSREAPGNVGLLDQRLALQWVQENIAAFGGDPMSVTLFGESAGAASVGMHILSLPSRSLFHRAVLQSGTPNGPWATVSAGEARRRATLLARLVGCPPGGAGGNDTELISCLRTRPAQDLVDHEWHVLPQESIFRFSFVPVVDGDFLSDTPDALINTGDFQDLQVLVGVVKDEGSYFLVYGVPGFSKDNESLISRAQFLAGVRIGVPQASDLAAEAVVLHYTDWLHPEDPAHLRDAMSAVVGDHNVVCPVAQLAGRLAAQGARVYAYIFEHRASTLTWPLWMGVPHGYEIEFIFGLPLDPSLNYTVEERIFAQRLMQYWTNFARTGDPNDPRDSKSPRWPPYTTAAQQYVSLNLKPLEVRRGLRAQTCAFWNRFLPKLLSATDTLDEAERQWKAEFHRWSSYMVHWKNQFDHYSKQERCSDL
Description: Inhibitory activity against acetylcholinesterase in rat brain

Test [2] concerns the target Acetylcholinesterase (Homo sapiens, UniProt P22303).
Description: Inhibitory activity against acetylcholinesterase in human RBC

Acetylcholinesterase (Homo sapiens, UniProt P22303), sequence (P22303 whole entry): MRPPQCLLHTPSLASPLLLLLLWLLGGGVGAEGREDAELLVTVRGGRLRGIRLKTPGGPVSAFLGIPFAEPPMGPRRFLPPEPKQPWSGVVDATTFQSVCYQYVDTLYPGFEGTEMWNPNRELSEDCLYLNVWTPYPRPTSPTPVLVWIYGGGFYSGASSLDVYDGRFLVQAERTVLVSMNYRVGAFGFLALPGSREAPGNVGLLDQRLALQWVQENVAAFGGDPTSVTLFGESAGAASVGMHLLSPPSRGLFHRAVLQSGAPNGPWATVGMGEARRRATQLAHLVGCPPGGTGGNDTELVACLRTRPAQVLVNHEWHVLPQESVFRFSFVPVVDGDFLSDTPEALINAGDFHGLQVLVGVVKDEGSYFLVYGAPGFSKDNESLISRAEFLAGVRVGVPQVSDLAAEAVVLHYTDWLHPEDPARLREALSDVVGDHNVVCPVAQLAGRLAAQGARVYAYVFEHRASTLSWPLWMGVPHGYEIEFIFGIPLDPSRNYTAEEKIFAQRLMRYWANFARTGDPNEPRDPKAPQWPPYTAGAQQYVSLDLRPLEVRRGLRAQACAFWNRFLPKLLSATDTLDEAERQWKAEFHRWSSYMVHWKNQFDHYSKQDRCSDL

The term IC50 denotes the concentration needed to halve the response being measured. Read a low IC50 as inhibition by little substance. Compound `Clc1cccc2c1CN1CCCCCC1=N2` came in with an IC50 in test [1] of 4.75 µM.

Take `c1ccc2c(c1)CN1CCCCCCC1=N2`: the concentration for half-maximal inhibition (IC50) was found to be 100 µM in test [1] and 9.2 µM in test [2]. As to `c1ccc2c(c1)CN1CCCCC1=N2`, the values for the 50% inhibitory concentration (IC50) in test [1] and in test [2] were more than 100 µM and 3.66 µM, respectively. As for `O=c1c2ccc(Cl)cc2nc2n1CCCCC2`, the IC50 in test [1] and in test [2] was more than 100 µM in each case.

Turning to `c1ccc2c(c1)CN1CCCCCC1=N2`, the IC50 in test [1] is 15 µM; in test [2], 3.76 µM.

Consider `Clc1ccc2c(c1)CN1CCCCCC1=N2`, for which the IC50 in test [1] stood at 9.3 µM.

Regarding `N=c1c2ccc(Cl)cc2nc2n1CCCCC2`, in test [1], the half-maximal inhibitory concentration (IC50) came out at 35.9 µM. Against the preceding compound, the IC50 is about 3.9-fold higher. In the case of `c1ccc2c(c1)CN1CCCCCCCC1=N2`, the 50% inhibitory concentration (IC50) in test [1] was more than 100 µM; in test [2], 13.5 µM. On to `S=c1c2ccc(Cl)cc2nc2n1CCCCC2`, for which the IC50 in test [1] and in test [2] was more than 100 µM in each case. `c1ccc2c(c1)CN1CCCC1=N2`: the IC50 was 18 µM in test [1] and 3.72 µM in test [2]. The matching figures for `CCCCCCCNC(=O)Oc1ccc2c(c1)[C@]1(C)CCN(C)[C@@H]1N2C` [EPTASTIGMINE]: 0.6 µM and 0.125 µM.

Turning to `C/C=C1\[C@H]2C=C(C)C[C@]1(N)c1ccc(=O)[nH]c1C2` [HUPERZINE A], in test [1], the IC50 came out at 0.094 µM.
